# Reference: ChEMBL document CHEMBL1201862, “PubChem BioAssay data set” (2004)
#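 These data come from cells grown in 96-well plates and exposed to compound for 48 hours at five concentrations. The concentration for 50% growth inhibition is given as GI50.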 The source made the active and inactive calls. Cut-off read from the data, not from the text of the source: active = GI50 up to about 1.1 µM and inactive = higher.
# Legend:
# Experiment in all cases: DTP human tumour cell line panel, 48 h
# 786-0 = test system: 786-0
# A498 = test system: A498
# A549 = test system: A549
# ACHN = test system: ACHN
# BT-549 = test system: BT-549
# CAKI-1 = test system: CAKI-1
# CCRF-CEM = test system: CCRF-CEM
# COLO 205 = test system: COLO 205
# DU-145 = test system: DU-145
# EKVX = test system: EKVX
# HCC 2998 = test system: HCC 2998
# HCT-116 = test system: HCT-116
# HCT-15 = test system: HCT-15
# HL-60 = test system: HL-60
# HOP-62 = test system: HOP-62
# HOP-92 = test system: HOP-92
# HT-29 = test system: HT-29
# Hs-578T = test system: Hs-578T
# K562 = test system: K562
# KM12 = test system: KM12
# LOX IMVI = test system: LOX IMVI
# M14 = test system: M14
# MCF7 = test system: MCF7
# MDA-MB-231 = test system: MDA-MB-231
# MDA-MB-435 = test system: MDA-MB-435
# MDA-N = test system: MDA-N
# MOLT-4 = test system: MOLT-4
# Malme-3M = test system: Malme-3M
# NCI-H226 = test system: NCI-H226
# NCI-H23 = test system: NCI-H23
# NCI-H460 = test system: NCI-H460
# NCI-H522 = test system: NCI-H522
# OVCAR-3 = test system: OVCAR-3
# OVCAR-4 = test system: OVCAR-4
# OVCAR-5 = test system: OVCAR-5
# OVCAR-8 = test system: OVCAR-8
# PC-3 = test system: PC-3
# RPMI-8226 = test system: RPMI-8226
# RXF 393 = test system: RXF 393
# SF-268 = test system: SF-268
# SF-295 = test system: SF-295
# SF-539 = test system: SF-539
# SK-MEL-28 = test system: SK-MEL-28
# SK-MEL-2 = test system: SK-MEL-2
# SK-MEL-5 = test system: SK-MEL-5
# SK-OV-3 = test system: SK-OV-3
# SN12C = test system: SN12C
# SNB-19 = test system: SNB-19
# SNB-75 = test system: SNB-75
# SR = test system: SR
# SW-620 = test system: SW-620
# T47D = test system: T47D
# TK-10 = test system: TK-10
# U-251 = test system: U-251
# UACC-257 = test system: UACC-257
# UACC-62 = test system: UACC-62
# UO-31 = test system: UO-31
# IGROV-1 = test system: IGROV-1
# NCI/ADR-RES = test system: NCI/ADR-RES
smiles,measurement,setting,value
COc1cc(C2c3[nH]c4ccccc4c3C[C@H]3COC(=O)N23)cc(OC)c1OC (stereo not given in full),GI50,786-0,0.0304 µM (active)
same,GI50,A498,0.0745 µM (active)
same,GI50,A549,0.101 µM (active)
same,GI50,ACHN,0.214 µM (active)
same,GI50,BT-549,0.163 µM (active)
same,GI50,CAKI-1,0.885 µM (active)
same,GI50,CCRF-CEM,0.0406 µM (active)
same,GI50,COLO 205,0.0687 µM (active)
same,GI50,DU-145,0.0879 µM (active)
same,GI50,EKVX,< 0.01 µM (active)
same,GI50,HCC 2998,0.131 µM (active)
same,GI50,HCT-116,0.0416 µM (active)
same,GI50,HCT-15,0.0471 µM
same,GI50,HL-60,0.0336 µM (active)
same,GI50,HOP-62,0.0467 µM (active)
same,GI50,HOP-92,0.92 µM (active)
same,GI50,HT-29,0.097 µM (active)
same,GI50,Hs-578T,0.0219 µM (active)
same,GI50,K562,0.0349 µM (active)
same,GI50,KM12,0.0552 µM (active)
same,GI50,LOX IMVI,0.0336 µM (active)
same,GI50,M14,0.0611 µM (active)
same,GI50,MCF7,0.0406 µM (active)
same,GI50,MDA-MB-231,0.815 µM (active)
same,GI50,MDA-MB-435,0.0213 µM (active)
same,GI50,MDA-N,0.0181 µM (active)
same,GI50,MOLT-4,0.0966 µM (active)
same,GI50,Malme-3M,0.0453 µM (active)
same,GI50,NCI-H226,0.0574 µM (active)
same,GI50,NCI-H23,0.0776 µM (active)
same,GI50,NCI-H460,0.055 µM (active)
same,GI50,NCI-H522,0.015 µM (active)
same,GI50,OVCAR-3,0.0307 µM (active)
same,GI50,OVCAR-4,1.55 µM (inactive)
same,GI50,OVCAR-5,0.112 µM (active)
same,GI50,OVCAR-8,0.178 µM (active)
same,GI50,PC-3,0.0411 µM (active)
same,GI50,RPMI-8226,0.0676 µM (active)
same,GI50,RXF 393,< 0.01 µM (active)
same,GI50,SF-268,0.132 µM (active)
same,GI50,SF-295,0.0262 µM (active)
same,GI50,SF-539,0.035 µM (active)
same,GI50,SK-MEL-28,0.0796 µM (active)
same,GI50,SK-MEL-2,0.0655 µM (active)
same,GI50,SK-MEL-5,0.0266 µM (active)
same,GI50,SK-OV-3,0.0366 µM (active)
same,GI50,SN12C,0.163 µM (active)
same,GI50,SNB-19,0.0803 µM (active)
same,GI50,SNB-75,0.0923 µM (active)
same,GI50,SR,0.0373 µM (active)
same,GI50,SW-620,0.051 µM (active)
same,GI50,T47D,> 10 µM (inactive)
same,GI50,TK-10,5.36 µM (inactive)
same,GI50,U-251,0.0445 µM (active)
same,GI50,UACC-257,0.0321 µM (active)
same,GI50,UACC-62,0.0348 µM (active)
same,GI50,UO-31,0.0431 µM (active)
CCN(CC)/N=C\c1c2ccccc2cc2ccccc12,GI50,786-0,44.2 µM (inactive)
same,GI50,A498,41 µM (inactive)
same,GI50,A549,41.6 µM (inactive)
same,GI50,ACHN,96.8 µM (inactive)
same,GI50,BT-549,84.7 µM (inactive)
same,GI50,CAKI-1,33 µM (inactive)
same,GI50,CCRF-CEM,31.3 µM (inactive)
same,GI50,COLO 205,23.5 µM (inactive)
same,GI50,DU-145,82 µM (inactive)
same,GI50,EKVX,38.4 µM (inactive)
same,GI50,HCT-116,31.8 µM (inactive)
same,GI50,HCT-15,34.6 µM
same,GI50,HL-60,31.7 µM (inactive)
same,GI50,HOP-92,24.4 µM (inactive)
same,GI50,HT-29,25 µM (inactive)
same,GI50,Hs-578T,48 µM (inactive)
same,GI50,IGROV-1,39.4 µM (inactive)
same,GI50,K562,44.9 µM (inactive)
same,GI50,KM12,30.8 µM (inactive)
same,GI50,M14,22 µM (inactive)
same,GI50,MDA-MB-231,24.9 µM (inactive)
same,GI50,MDA-MB-435,34.7 µM (inactive)
same,GI50,MDA-N,39 µM (inactive)
same,GI50,MOLT-4,21 µM (inactive)
same,GI50,Malme-3M,49.8 µM (inactive)
same,GI50,NCI-H23,58.9 µM (inactive)
same,GI50,NCI-H460,30.7 µM (inactive)
same,GI50,NCI-H522,21 µM (inactive)
same,GI50,NCI/ADR-RES,79.4 µM (inactive)
same,GI50,OVCAR-4,54.3 µM (inactive)
same,GI50,OVCAR-5,37.5 µM (inactive)
same,GI50,OVCAR-8,61.8 µM (inactive)
same,GI50,PC-3,41.1 µM (inactive)
same,GI50,RPMI-8226,30.5 µM (inactive)
same,GI50,RXF 393,17.7 µM (inactive)
same,GI50,SF-268,72.8 µM (inactive)
same,GI50,SF-295,39 µM (inactive)
same,GI50,SF-539,> 100 µM (inactive)
same,GI50,SK-MEL-28,11.9 µM (inactive)
same,GI50,SK-MEL-2,27.9 µM (inactive)
same,GI50,SK-MEL-5,21.8 µM (inactive)
same,GI50,SK-OV-3,> 100 µM (inactive)
same,GI50,SN12C,48.5 µM (inactive)
same,GI50,SNB-19,> 100 µM (inactive)
same,GI50,SNB-75,18.3 µM (inactive)
same,GI50,SR,26.6 µM (inactive)
same,GI50,SW-620,29 µM (inactive)
same,GI50,T47D,42.7 µM (inactive)
same,GI50,TK-10,55 µM (inactive)
same,GI50,U-251,24.5 µM (inactive)
same,GI50,UACC-257,27.9 µM (inactive)
same,GI50,UACC-62,53.6 µM (inactive)
same,GI50,UO-31,48.8 µM (inactive)
